Paper PMC11876671, “Investigating blood–brain barrier penetration and neurotoxicity of natural products for central nervous system drug development” (Scientific Reports, 2025)
Structures can show the parent of a compound that is named as a salt. Where two headings read alike, the source gives them in different places.

What was measured:
[1] = in vitro; conditions: PAMPA, PAMPA-BBB Pe
[2] = test system: GFP-labeled iPSC-derived human cortical glutamatergic neurons; experiment: cells; type: cell-based; conditions: Table S1, total neurite length, 48 hr, head prints no unit, µM per Table 1 and Fig. 5, read-out: TNL AC50 (48 hr)
[3] = test system: GFP-labeled iPSC-derived human cortical glutamatergic neurons; experiment: cells; conditions: Neuron, 48 h, read-out: Viability AC50 (48hr)
[4] = Table S1, 60 min, room temperature, 0.05 mM
[5] = Table S2: compounds exhibiting moderate to high PAMPA-BBB permeability

| Compound | Papp [1, 4] | AC50 ([2]; Homo sapiens, Neuron) | AC50 [3] | Papp [1, 5] | AC50 [2] | PAMPA-BBB Pe [4] | PAMPA-BBB Pe [5] |
| --- | --- | --- | --- | --- | --- | --- | --- |
| Oc1ccc(C2=Cc3ccc(O)cc3OC2)cc1 [Phenoxodiol] | 1450 nm/s | 8.86 µM | 4.33 µM | – | – | – | – |
| CCCCCc1cc(O)c2c(c1)OC(C)(C)c1ccc(C)cc1-2 [Cannabinol] | 206 nm/s | 28.2 µM | 35.2 µM | 210 nm/s | – | – | – |
| Desoxycortone | – | – | – | – | 33.5 µM | 65.13 10^-6 cm/sec | – |
| OCC=Cc1ccccc1 [Cinnamyl alcohol] | 974 nm/s | 5.95 µM | – | 690 nm/s | – | – | 97 10^-6 cm/sec |
| CC[C@@]1(O)C[C@H](O[C@H]2C[C@H](N(C)C)[C@H](O)[C@H](C)O2)c2c(cc3c(c2O)C(=O)c2c(O)ccc(O)c2C3=O)[C@H]1C(=O)OC [NCGC00178933-02] | 319 nm/s | 0.475 µM | 0.81 µM | 320 nm/s | – | – | – |
| C=C(C)[C@@]12OC3(c4ccccc4)O[C@@H]1[C@@H]1[C@@H]4O[C@]4(CO)[C@@H](O)[C@]4(O)C(=O)C(C)=C[C@H]4[C@@]1(O3)[C@H](C)[C@H]2OC(=O)/C=C/C=C/c1ccccc1 [Mezerein] | 156 nm/s | 16.3 µM | 9.41 µM | 160 nm/s | – | – | – |
| COc1ccc(C(=O)/C=C/c2ccccc2)cc1 [4'-METHOXYCHALCONE] | – | 23.6 µM | 23.6 µM | – | – | >1000 10^-6 cm/sec | >1000 10^-6 cm/sec |
| COC1=C[C@@]23CCN(C)[C@H](Cc4ccc(OC)c(O)c42)C3=CC1=O [(-)-Sinoacutine] | 115 nm/s | 15.2 µM | – | – | – | – | – |
| CCCCCC(=O)Cc1cc(O)cc(O)c1C(=O)Oc1cc(CC(=O)CCCCC)c(C(=O)O)c(OC)c1 [NCGC00095554-03] | – | 6.66 µM | – | – | – | >1000 10^-6 cm/sec | >1000 10^-6 cm/sec |
| O=c1c2ccccc2oc2ccccc12 [Xanthenone] | 1730 nm/s | 18.6 µM | – | – | – | – | – |
| CN1[C@@H](CC(=O)c2ccccc2)CCC[C@H]1C[C@H](O)c1ccccc1 [Lobeline hydrochloride] | 318 nm/s | 9.96 µM | 22.5 µM | 320 nm/s | – | – | – |
| O=c1c(-c2ccc(O)cc2)coc2cc(O)cc(O)c12 [Genistein] | 354 nm/s | 33.4 µM | – | 350 nm/s | – | – | – |
| CC[C@H](C)[C@H]1O[C@]2(C=C[C@@H]1C)C[C@@H]1C[C@@H](C/C=C(\C)[C@@H](O[C@H]3C[C@H](OC)[C@@H](O[C@H]4C[C@H](OC)[C@@H](O)[C@H](C)O4)[C@H](C)O3)[C@@H](C)/C=C/C=C3\CO[C@@H]4[C@H](O)C(C)=C[C@@H](C(=O)O1)[C@]34O)O2 [Avermectin B1A] | 350 nm/s | 25.9 µM | 17.2 µM | – | – | – | – |
| C/C(=C\COc1c2ccoc2cc2oc(=O)ccc12)CCC(O)C(C)(C)O (stereo not shown) [6,7-dihydroxy Bergamottin] | 547 nm/s | 6.03 µM | – | – | – | – | – |
| CO[C@@H]1[C@@H](O[C@@H]2O[C@H](C)[C@@H](O[C@H]3C[C@@](C)(O)[C@@H](OC(=O)CC(C)C)[C@H](C)O3)[C@H](N(C)C)[C@H]2O)[C@@H](CC=O)C[C@@H](C)C(=O)/C=C/[C@@H]2O[C@H]2C[C@@H](C)OC(=O)C[C@H]1OC(C)=O [Magnamycin A/Carbomycin A] | 319 nm/s | 27.1 µM | – | 320 nm/s | – | – | – |
| O=C(/C=C/c1ccc(O)c(O)c1)OCCc1ccccc1 [Caffeic acid phenethyl ester] | – | 22.2 µM | 24.8 µM | – | – | >1000 10^-6 cm/sec | – |
| COc1cc([C@@H]2c3cc4c(cc3C[C@H]3COC(=O)[C@@H]32)OCO4)cc(OC)c1O [(5R,5aR,8aR)-5-(4-hydroxy-3,5-dimethoxyphenyl)-5,8,8a,9-tetrahydrofuro[3',4':6,7]naphtho[2,3-d][1,3]dioxol-6(5aH)-one] | 112 nm/s | 0.585 µM | 0.656 µM | 110 nm/s | – | – | – |
| CCCC[C@@H](C)/C=C(C)/C=C(\C)C(=O)NC1=C[C@@](O)(/C=C/C=C/C=C/C(=O)NC2=C(O)CCC2=O)[C@@H]2O[C@@H]2C1=O [ManumycinA] | 640 nm/s | 6.43 µM | 8.33 µM | – | – | – | – |
| COc1ccc(/C=C/C(=O)c2ccc(O)cc2O)cc1OC [2',4'-DIHYDROXY-3,4-DIMETHOXYCHALCONE] | 3120 nm/s | 5.97 µM | – | – | – | – | 312 10^-6 cm/sec |
| CSC(=S)NCc1c[nH]c2ccccc12 [BRASSININ] | 2670 nm/s | 6.34 µM | – | – | – | – | 267 10^-6 cm/sec |
| C=CC(C1=CC(=O)C(OC)=CC1=O)c1ccc(OC)cc1 (stereo not shown) [NCGC00095719-04] | 1430 nm/s | 1.26 µM | 1.33 µM | 1430 nm/s | – | – | – |
